# In patent US7022716B2, “Cyclic amine phenyl beta-3 adrenergic receptor agonists” (Wyeth, priority 2000, dated 2006):
# Molecular target: T1, human β3 adrenergic receptor (Homo sapiens, UniProt P13945)
# T1 construct: Full length β3 AR clones (402 amino acids) containing the last 6 amino acids of hβ3-AR are prepared; expressed in transfected cells; host or cells: CHO (Chinese hamster ovary) cells
# Experiment: cAMP (SPA) response in CHO cells transfected with human β3 adrenergic receptor
# Format: cell-based
# Set-up: key: fraction of maximal isoproterenol (10^-5 M) response
# Conditions: maximal response relative to maximal response of isoproterenol at 10^-5 M
# Procedure: Binding to the receptors was measured in Chinese Hamster ovary (CHO) cells that were transfected with adrenergic receptors.
# The corresponding primer sequences are described in Mantzoros, C. […] The four fragments are ligated into a pUC 18 plasmid (Gibco-BRL) and sequenced.
# CHO cells were grown in 24-well tissue culture plates in Dulbecco's Modified Eagle Media with 10% fetal bovine serum, MEM non-essential amino acids, Penicillin-Streptompycin and Geneticin. On the day of test procedure, growth medium was replaced with preincubation media (Dulbecco's Modified Eagle, Media) and incubated for 30 minutes at 37° C. […] Test compounds were tested over a concentration range of 10^−9 M to 10^−5 M for β3 cells and 10^−8 to 10^−4 M for β1 and β2 transfected cells. Isoproterenol (10^−5 M) was used as an internal standard for comparison of activity. Cells were incubated at 37° C. on a rocker for 30 min with the β3 cells and 15 min for β1 and β2 cells. Incubation was stopped with the addition of 0.2N HCl and neutralized with 2.5N NaOH. The plates, containing the cells and neutralized media, were stored at −20 degrees celsius until ready to test for cAMP using the SPA test kit (Amersham).
# Data Analysis and Results: Data collected from the SPA test procedure were analyzed as percent of the maximal isoproterenol response at 10^−5 M. Activity curves were plotted using the SAS statistical and graphics software.
# T1 sequence (P13945 whole entry): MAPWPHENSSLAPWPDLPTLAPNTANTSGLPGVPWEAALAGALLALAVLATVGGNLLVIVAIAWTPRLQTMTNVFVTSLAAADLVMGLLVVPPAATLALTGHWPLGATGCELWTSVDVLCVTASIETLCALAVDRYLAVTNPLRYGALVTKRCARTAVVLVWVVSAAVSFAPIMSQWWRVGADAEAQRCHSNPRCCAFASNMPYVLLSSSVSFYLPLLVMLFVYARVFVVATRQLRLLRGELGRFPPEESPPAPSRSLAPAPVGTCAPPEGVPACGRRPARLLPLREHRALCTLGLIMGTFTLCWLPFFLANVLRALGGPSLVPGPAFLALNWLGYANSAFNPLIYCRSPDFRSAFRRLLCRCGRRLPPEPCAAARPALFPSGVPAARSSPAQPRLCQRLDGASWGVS
row,Molecule,IA(β3)
1,"5-[4-(4-{[4-(2S)-2-(3-Bromoisoxazol-5-yl)-2-hydroxyethyl]amino}piperidine-1-yl)benzyl]-1,3-thiazolidine-2,4-dione [Example 122]",0.46
2,"O=C1NC(=O)C(Cc2ccc(N3CCC(NC[C@H](O)COc4cccc5[nH]c(=O)[nH]c45)CC3)c(F)c2)S1 (stereo partly drawn) [Example 67, 5-(3-Fluoro-4-{4-[(2S)-2-hydroxy-3-(2-oxo-2,3-dihydro-1H-benzoimidazol-4-yloxy)-propylamino]-piperidin-1-yl}-benzyl)-thiazolidine-2,4-dione]",1.06
3,"O=C1NC(=O)C(=Cc2ccc(N3CCC(NC[C@H](O)COc4cccc5[nH]c(=O)[nH]c45)CC3)c(Br)c2)S1 [Example 68, 5-(3-Bromo-4-{4-[(2S)-2-hydroxy-3-(2-oxo-2,3-dihydro-1H-benzoimidazol-4-yloxy)-propylamino]-piperidin-1-yl}-benzylidene)-thiazolidine-2,4-dione]",1
4,"O=C1NC(=S)SC1=Cc1ccc(N2CCC(NC[C@H](O)COc3ccc(O)cc3)CC2)cc1 [Example 82, 5-(4-{4-[(2S)-2-Hydroxy-3-(4-hydroxy)-propylamino]-piperidin-1-yl}-benzylidene)-2-thioxo-thiazolidin-4-one]",1.07
5,"CCOC(=O)c1ccc(N2CCC(NC[C@H](O)c3cccc(Cl)c3)CC2)cc1.Cl [Example 181, {4-[(2R)-2-(3-Chloro-phenyl)-2-hydroxy-ethylamino]-piperidin-1-yl}-benzoic acid ethyl ester hydrochloride]",0.56
6,"CS(=O)(=O)Nc1cc([C@@H](O)CNC2CCN(c3ccc(C(=O)NCC(=O)O)cc3)CC2)ccc1O [Example 197, [(4-{4-[((2R)-2-Hydroxy-2-{4-hydroxy-3-[(methylsulfonyl)amino]phenyl}ethyl)amino]-1-piperidinyl}benzoyl)amino]acetic acid]",0.94
7,"CC(C)C[C@H](NC(=O)c1ccc(N2CCC(NC[C@H](O)c3ccc(O)c(NS(C)(=O)=O)c3)CC2)cc1)C(=O)O [Example 199, (2S)-2-(4-{4-[(2R)-2-Hydroxy-2-(4-hydroxy-3-methanesulfonylamino-phenyl)-ethylamino]-piperidin-1-yl}-benzoylamino)-4-methyl-pentanoic acid]",1
8,"CC(C)[C@H](NC(=O)c1ccc(N2CCC(NC[C@H](O)c3ccc(O)c(NS(C)(=O)=O)c3)CC2)cc1)C(=O)O [Example 203, (2S)-2-(4-{4-[(2R)-2-Hydroxy-2-(4-hydroxy-3-methanesulfonylamino-phenyl)-ethylamino]-piperidin-1-yl}-benzoylamino)-3-methyl-butyric acid]",1.1
9,"COc1ccc(S(=O)(=O)Nc2ccc(N3CCC(NCC(O)c4ccccc4)CC3)cc2)cc1 (centres unmarked) [Example 255, N-{4-[4-(2-Hydroxy-2-phenyl-ethylamino)-piperidin-1-yl]-phenyl}-4-methoxy-benzenesulfonamide]",0.72
10,"COc1ccc(S(=O)(=O)Nc2ccc(N3CCC(NCC(O)c4cccc(O)c4)CC3)cc2)cc1 (centres unmarked) [Example 256, N-(4-{4-[2-Hydroxy-2-(3-hydroxy-phenyl)-ethylamino]-piperidin-1-yl}-phenyl)-4-methoxy-benzenesulfonamide]",0.85
11,"CC(=O)Nc1ccc(S(=O)(=O)Nc2ccc(N3CCC(NCC(O)c4cccc(O)c4)CC3)cc2)cc1 (centres unmarked) [Example 257, N-[4-(4-{4-[2-Hydroxy-2-(3-hydroxy-phenyl)-ethylamino]-piperidin-1-yl}-phenylsulfamoyl)-phenyl]-acetamide]",0.88
12,"CC(=O)Nc1ccc(S(=O)(=O)Nc2ccc(N3CCC(NC[C@H](O)c4ccccc4)CC3)cc2)cc1 [Example 258, N-(4-{4-[4-((2R)-2-Hydroxy-2-phenyl-ethylamino)-piperidin-1-yl]-phenylsulfamoyl}-phenyl)-acetamide]",0.7
13,"CC(=O)Nc1ccc(S(=O)(=O)Nc2ccc(N3CCC(NCC(O)c4ccc(O)cc4)CC3)cc2)cc1 (centres unmarked) [Example 259, N-(4-{[4-(4-{[2-Hydroxy-2-(4-hydroxyphenyl)ethyl]amino}-1-piperidinyl)-anilino]sulfonyl}phenyl)acetamide]",0.97
14,"COc1ccc(S(=O)(=O)Nc2ccc(N3CCC(NC[C@H](O)c4cccc(Cl)c4)CC3)cc2)cc1 [Example 260, N-[4-(4-{[(2R)-2-(3-Chlorophenyl)-2-hydroxyethyl]amino}-1-piperidinyl)phenyl]-4-methoxybenzenesulfonamide]",0.63
15,"COc1ccc(S(=O)(=O)Nc2ccc(N3CCC(NC[C@H](O)c4ccccc4)CC3)cc2)cc1 [Example 261, N-[4-(4-{[(2R)-2-Hydroxy-2-phenylethyl]amino}-1-piperidinyl)phenyl]-4-methoxybenzenesulfonamide]",0.73
16,"CC(=O)Nc1ccc(S(=O)(=O)Nc2ccc(N3CCC(NC[C@H](O)c4ccc(O)c(O)c4)CC3)cc2)cc1 [Example 263, N-(4-{[4-(4-{[(2R)-2-(3,4-Dihydroxyphenyl)-2-hydroxyethyl]amino}-1-piperidinyl)anilino]sulfonyl}phenyl)acetamide]",0.93
17,"CC(=O)Nc1ccc(S(=O)(=O)Nc2ccccc2N2CCC(NCC(O)c3cccc(O)c3)CC2)cc1 (centres unmarked) [Example 264, N-(4-{[2-(4-{[2-Hydroxy-2-(3-hydroxyphenyl)ethyl]amino}-1-piperidinyl)anilino]-sulfonyl}phenyl)acetamide]",0.37
18,"CC(=O)Nc1ccc(S(=O)(=O)Nc2ccccc2N2CCC(NC[C@H](O)c3ccc(O)c(O)c3)CC2)cc1 [Example 265, N-(4-{[2-(4-{[(2R)-2-(3,4-Dihydroxyphenyl)-2-hydroxyethyl]amino}-1-piperidinyl)-anilino]sulfonyl}phenyl)acetamide]",0.8
19,"COc1ccc(S(=O)(=O)Nc2ccc(N3CCC(NC[C@H](O)c4ccc(O)c(O)c4)CC3)cc2)cc1 [Example 266, N-[4-(4-{[(2R)-2-(3,4-Dihydroxyphenyl)-2-hydroxyethyl]amino}-1-piperidinyl)phenyl]-4-methoxybenzenesulfonamide]",0.86
20,"COc1cc(C(O)CNC2CCN(c3ccc(NS(=O)(=O)c4ccc(NC(C)=O)cc4)cc3)CC2)ccc1O (centres unmarked) [Example 267, N-(4-{[4-(4-{[2-Hydroxy-2-(4-hydroxy-3-methoxyphenyl)ethyl]amino}-1-piperidinyl)anilino]sulfonyl}phenyl)acetamide]",0.99
21,"CC(=O)Nc1ccc(S(=O)(=O)Nc2ccc(N3CCC(NCC(O)c4ccc(O)cc4O)CC3)cc2)cc1 (centres unmarked) [Example 268, N-(4-{[4-(4-{[2-(2,4-Dihydroxyphenyl)-2-hydroxyethyl]amino}-1-piperidinyl)-anilino]sulfonyl}phenyl)acetamide]",0.64
22,"CC(=O)Nc1ccc(S(=O)(=O)Nc2ccc(N3CCC(NCC(O)c4ccc(O)c(NS(C)(=O)=O)c4)CC3)cc2)cc1 (centres unmarked) [Example 270, N-{4-[(4-{4-[(2-Hydroxy-2-{4-hydroxy-3-[(methylsulfonyl)amino]phenyl}ethyl)amino]-1-piperidinyl}anilino)sulfonyl]phenyl}acetamide]",1.09
23,"CCCCCCNC(=O)Nc1ccc(S(=O)(=O)Nc2ccc(N3CCC(NCC(O)c4ccc(C)nc4)CC3)cc2)cc1 (centres unmarked) [Example 271, 4-{[(Hexylamino)carbonyl]amino}-N-[4-(4-{[2-hydroxy-2-(6-methyl-3-pyridinyl)ethyl]amino}-1-piperidinyl)phenyl]benzenesulfonamide]",0.84
24,"CC(=O)Nc1ccc(S(=O)(=O)Nc2ccc(N3CCC(NC[C@H](O)COc4ccccc4)CC3)cc2)cc1 [Example 272, N-(4-{[4-(4-{[(2S)-2-Hydroxy-3-phenoxypropyl]amino}-1-piperidinyl)anilino]-sulfonyl}phenyl)acetamide]",0.57
25,"CC(=O)Nc1ccc(S(=O)(=O)Nc2ccc(N3CCC(NCC(O)c4cc(C(N)=O)c5[nH]ccc5c4)CC3)cc2)cc1 (centres unmarked) [Example 273, 5-[2-({1-[4-({[4-(Acetylamino)phenyl]sulfonyl}amino)phenyl]-4-piperidinyl}amino)-1-hydroxyethyl]-1H-indole-7-carboxamide]",1.05
26,CC(=O)Nc1ccc(S(=O)(=O)Nc2ccc(N3CCC(NC[C@H](O)COc4cccc5[nH]c(=O)[nH]c45)CC3)cc2)cc1 [Example 274],1.15
27,"CCCCCCNC(=O)Nc1ccc(S(=O)(=O)Nc2ccc(N3CCC(NC[C@H](O)COc4cccc5[nH]c(=O)[nH]c45)CC3)cc2)cc1 [Example 275, 4-{[(Hexylamino)carbonyl]amino}-N-{4-[4-({(2S)-2-hydroxy-3-[(2-oxo-2,3-dihydro-1H-benzimidazol-4-yl)oxy]propyl}amino)-1-piperidinyl]phenyl}benzenesulfonamide]",0.73
28,"CCCCCCNC(=O)Nc1ccc(S(=O)(=O)Nc2ccc(N3CCC(NC[C@H](O)c4ccc(O)c(NS(C)(=O)=O)c4)CC3)cc2)cc1 [Example 276, 4-{[(Hexylamino)carbonyl]amino}-N-(4-{4-[((2R)-2-hydroxy-2-{4-hydroxy-3-[(methylsulfonyl)amino]phenyl}ethyl)amino]-1-piperidinyl}phenyl)benzenesulfonamide]",1.1
29,O=c1[nH]c2cccc(OC[C@@H](O)CNC3CCN(c4ccc(NS(=O)(=O)c5ccc(-n6nnn(CCCC7CCCC7)c6=O)cc5)cc4)CC3)c2[nH]1 [Example 277],0.58
